Test results published in patent US12226404B2, “Methods for making compositions for pulmonary administration” (Board of Regents, the University of Texas System, priority 2007, dated 2025).
Values after ≈ are worked out from the molar mass of the structure shown. Values joined by “and” are separate entries in the source; they are usually repeats but may differ in a detail not shown here. Equal values may be shown once.

Columns and labels:
[1] = Evaluation of rodent dosing apparatus with nebulized ITZ colloidal suspension, in vivo lung concentration; design: species or system outbred ICR mice; conditions: individual mice, 5 min nebulization
Excerpt: As used herein, the term “pre-clinical rodent dosing apparatus” refers to the apparatus reported by J. T. McConville, P. Sinswat, J. Tam, K. P. Johnston and R. O. Williams III, In vitro and in vivo validation of a high-concentration pre-clinical rodent dosing apparatus for inhalation, Proceedings of the American Association of Pharmaceutical Scientists, San Antonio, TX, October, 2006, relevant portions incorporated herein by reference. An animal dosing chamber was designed which consisted of hollow tubing (20×4.5 cm; nominal wall thickness of 0.4 cm) with four 1.75 cm adapter holes drilled at 7 cm intervals (2 holes along each side). The adapter holes were constructed to accept rodent restraint tubes from the Battelle® toxicology testing unit. A standard itraconazole (ITZ) colloidal suspension was nebulized into the apparatus for 5 minutes using a micro-pump nebulizer. Atomized droplets containing ITZ were driven into the chamber at a flow rate of 1 L/min. ITZ concentrations were measured in vitro at the 4 adapter ports, and in vivo from the lungs of 8 outbred-ICR mice in the appropriate mice restraining tubes at the adapter ports.
Example 11. […] ITZ concentrations were measured in vitro at the 4 adapter ports, and in vivo from the lungs of male outbred ICR mice in the appropriate mice restraining tubes at the adapter ports. […]

[2] = Dissolution testing below equilibrium solubility (sink) in modified simulated lung fluid with 0.02% DPPC; assay type: physicochemical; conditions: SLF 0.02% DPPC
Procedure: Dissolution Testing at Below Equilibrium Solubility. Dissolution testing at below equilibrium solubility was performed on the URF powder samples using a United States Pharmacopeia (USP) 27 Type 2 dissolution apparatus (VanKel VK6010 Dissolution Tester with a Vanderkamp VK650A heater/circulator, Varian, Inc. Palo Alto, CA). […] The dissolution media was maintained at 37.0±0.2° C. and stirred at a constant rate of 50 rpm. Samples (1 mL) were withdrawn at 10, 20, 30, 60 and 120 minute time points, filtered using a 0.45 μm GHP Acrodisc filter (VWR, Inc., West Chester, PA) and analyzed using a Shimadzu LC-10 liquid chromatograph (Shimadzu Corporation, Kyoto, Japan) equipped with an Alltech ODS-2, 5 μm C18 column (Alltech Associates, Inc., Deerfield, IL). The mobile phase consisted of a 70:30 (v/v) ACN: Water mixture, used at a flow rate of 1 mL/min. The maximum absorbance was measured at wavelength λmax=214 nm.
Example 5. […] Samples (1 mL) were withdrawn at 10, 20, 30, 60, and 120 minute time points, filtered using a 0.45 μm GHP Acrodisc filter (VWR, Inc. Westchester, PA), and analyzed using a Shimadzu LC-10 liquid chromatograph (Shimadzu Corporation, Kyoto, Japan) equipped with an Altech ODS-2, 5 μm C18 column (Altech Associates, Deerfield, IL). […] The maximum absorbance was measured at wavelength λ=214 nm.

[3] = Equilibrium solubility of TAC in modified simulated lung fluid with 0.02% DPPC; assay type: physicochemical; conditions: modified simulated lung fluid (SLF) with 0.02% DPPC, 37 °C, fassgf or other biorelevant, thermodynamic from solid, modified simulated lung fluid 0.02% DPPC
[4] = BET specific surface area analysis; assay type: physicochemical
Procedure: As used herein, the term “BET Analysis” refers to a method for measuring the surface area of the exposed surface of a solid sample on the molecular scale. The BET (Brunauer, Emmet, and Teller) theory is typically used to determine the area of solids. Commonly, samples are prepared by heating and simultaneously evacuating or flowing gas over the sample to remove the liberated impurities. The prepared samples are then cooled with liquid nitrogen and analyzed by measuring the volume of gas (typically N2 or Kr) adsorbed at specific pressures. Krypton gas is often used when the measured surface is expected to be less than 2 m^2/g (typically pharmaceutical samples and natural organic materials). The skilled artisan will recognize that several types of instruments may be used for measuring surface area, which depends upon the extent of the surface or the gas required to achieve the best results. […]
BET Specific Surface Area Analysis. Specific surface area was measured using a Nova 2000 v. […] The data recorded were then analyzed according to BET theory using NOVA Enhanced Data Reduction Software v. […]
Example 3. […] Specific surface area was measured using a Nova 2000 v 6.11 instrument (Quantachrome Instruments, Boynton Beach, FL). […] The data recorded were then analyzed according to BET theory using NOVA Enhanced Data Reduction Software v. […]

[5] = adult patients; cited from earlier work

CCC(C)n1ncn(-c2ccc(N3CCN(c4ccc(OCC5COC(Cn6cncn6)(c6ccc(Cl)cc6Cl)O5)cc4)CC3)cc2)c1=O (stereo not shown) [ITZ, itraconazole]
ITZ Conc. in Lung Tissue [1]: 21.6 µg/g and 20.2 µg/g and 18.3 µg/g and 13.5 µg/g and 15.9 µg/g and 18.6 µg/g and 19.2 µg/g and 22.7 µg/g

C=CC[C@@H]1/C=C(\C)C[C@H](C)C[C@H](OC)[C@H]2O[C@@](O)(C(=O)C(=O)N3CCCC[C@H]3C(=O)O[C@H](/C(C)=C/[C@@H]3CC[C@@H](O)[C@H](OC)C3)[C@H](C)[C@@H](O)CC1=O)[C@H](C)C[C@@H]2OC [unprocessed TAC, Tacrolimus]
dissolution of TAC ([2]; at 1 hr, 37° C.): 30%
dissolution of TAC ([2]; in 30 minutes, sink conditions): 30%
solubility thermodynamic [3]: ~6.8 µg/mL (≈ 8.46 µM)
Specific Surface Area ([4]; Table 2): 0.533 m^2/g
Surface Area (BET) ([4]; URF study, Table 4): 0.53 m^2/g
average oral bioavailability [5]: approximately 25%
